Assay results taken from ChEMBL document CHEMBL5252553, “Synthesis and biological activities of drugs for the treatment of osteoporosis” (Eur J Med Chem, 2020).

Experiment: n-Octanol/water partition coefficient, log P of the compound
Format: physicochemical

Row | SMILES | logP
1 | CCCCCCCCCCCCCCCC(=O)NCCCC(O)(P(=O)(O)O)P(=O)(O)O | 0.053
2 | CCCCCCCCCCCCCC(=O)NCCCC(O)(P(=O)(O)O)P(=O)(O)O | 0.045
3 | CCCCCCCCCCCCCCCCCC(=O)NCCCC(O)(P(=O)(O)O)P(=O)(O)O | 0.063
4 | CCCCCCCCCCCC(=O)NCCCC(O)(P(=O)(O)O)P(=O)(O)O | 0.027
